In patent EP1137438B1, “FORMULATION WITH AN IMPROVED THERAPEUTIC RANGE, CONTAINING NUCLEOTIDE SYNTHESIS INHIBITORS” (Aventis Pharma Deutschland GmbH, priority 1998, dated 2000):

Tests used:
[1] = Blood levels and duration of action of Verbindung 1 after later administration of Colestyramin; format: in vivo; settings: after later administration of Colestyramin (interruption of enterohepatic circulation); result in words
Description: Die erfindungsgemäße Zubereitung kann auch Kompositionen oder Kombinationspackungen umfassen, in denen die Bestandteile nebeneinander gestellt sind und deshalb gleichzeitig, getrennt oder zeitlich abgestuft an ein und denselben menschlichen oder tierischen Körper anwendbar sind. Bevorzugt ist die zeitlich abgestufte Applikation von der Verbindung der Formel I und/oder II vor der Applikation der Verbindung, die die enterohepatische Zirkulation der Verbindung der Formel I oder II im wesentlichen verhindert. Hierzu wird beispielsweise zuerst N-(4-Trifluormethylphenyl)-2-cyan-3-hydroxy-crotonsäureamid (im folgenden als Verbindung 1 bezeichnet) appliziert. Colestyramin, das die enterohepatische Zirkulation der Verbindung 1 im wesentlichen verhindert, wird zeitlich versetzt, also z.B. 2 Stunden oder 4 Stunden nach der Gabe der Verbindung 1, appliziert. Durch diese zeitlich versetzte Gabe der Verbindung 1 und Colestyramin wird die Verbindung 1 zunächst ungehindert aus dem Verdauungstrakt resorbiert.
Nach der Gabe von Colestyramin, welches systemisch nicht resorbiert wird, wird die über die Galle ausgeschiedene Verbindung 1 an Colestyramin gebunden und kann daher nicht wieder reabsorbiert werden; dadurch wird eine Unterbrechung der enterohepatischen Zirkulation bewirkt.

[2] = system: Adjuvans induzierte Arthritis; assay: Adjuvant-induced arthritis, modification after Perper (paw volume, arthritis index on day 18); format: in vivo, männliche Ratten eines Lewis-Stammes
Procedure: Adjuvans induzierte Arthritis, Modifikation nach Perper (Proc. Soc. exp. Biol. Med. 137, 506 (1971)) Als Versuchstiere dienten männliche Ratten eines Lewis-Stammes (Moellegard, Dänemark) mit einem Körpergewicht von 160 bis 210 g. Die Tiere erhielten am 1.
Tag eine subkutane Injektion in die Schwanzwurzel mit kompletten Freund'schen Adjuvans, enthaltend eine Mycobacterium butyricum Suspension in schwerem Paraffin Öl (Difco; 6 mg/kg in Paraffin Öl; Merck). Die Verbindungen N-(4-Trifluormethylphenyl)-2-cyan-3-hydroxy-crotonsäureamid und Colestyramin wurden in Carboxymethylcellulose (1 % in Wasser) suspendiert und oral verabreicht. Die Verbindungen wurden einmal täglich vom 1. bis zum 17. Versuchstag appliziert; dann erfolgte die Bestimmung des Pfotenvolumens und Arthritis-Index am 18. Tag.
Die Schwere der Erkrankung wurde durch Messung des Pfotenvolumens beider Hinterpfoten bestimmt. Die Messung erfolgte durch die Wasserverdrängungsmethode mit einem Plethysmometer 2060 (Rhema-Labortechnik, Hofheim, Deutschland). Ferner erfolgte die Bestimmung des Arthritis Index am 18. Tag nach der Injektion.
Bestimmung des Arthritis Index: 1. Ohren 0,5 Punkte für jedes Ohr an dem eine Rötung auftritt und Knoten gebildet werden 2. Nase 1 Punkt für Bindegewebsschwellung 3. Schwanz 1 Punkt für das Auftauchen von Knoten 4. Vorderpfoten 0,5 Punkte für jede Pfote an der wenigsten eine Entzündung an einem Gelenk auftritt 5. Hinterpfoten 1 Punkt für leichte Entzündung (Schwellung) 2 Punkte für eine mittelstarke Entzündung 3 Punkte für eine massive Entzündungsreaktion
Tiere einer Kontrollgruppe "Arthritis Kontrolle" erhielten am 1. Tag eine subkutane Injektion in die Schwanzwurzel mit kompletten Freund'schen Adjuvans und erhielten aber nur das Lösungsmittel (1 % Carboxymethylcellulose in Wasser). Pro Dosierung und in der Kontrollgruppe wurden jeweils 6 Tiere verwendet. Als weitere Kontrollgruppe "gesunde Kontrolle" wurden unbehandelte Tiere eingesetzt. Als Wirkungskriterium diente die Herabsetzung der Pfotenvolumenzunahme und die Abnahme des Arthritis Index gegenüber der unbehandelten Kontrollgruppe und das Gewicht der Tiere jeweils in Prozent und bezogen auf die Arthritis Kontrolle.
In der folgenden Tabelle wird N-(4-Trifluormethylphenyl)-2-cyan-3-hydroxycrotonsäureamid als Verbindung 1 bezeichnet. Colestyramin wurde 4 Stunden später als Verbindung 1 appliziert. Tabelle 1 zeigt die erhaltenen Ergebnisse. Tabelle 1

[3] = Tabelle 1, Verbindung 1 25 mg/kg oral (combination: + 1000 mg/kg Colestyramin 4 h later), once daily day 1-17, read day 18
[4] = Tabelle 1, Verbindung 1 2,5 mg/kg oral (combination: + 1000 mg/kg Colestyramin 4 h later), once daily day 1-17, read day 18
[5] = Tabelle 1, Verbindung 1 7,5 mg/kg oral (combination: + 1000 mg/kg Colestyramin 4 h later), once daily day 1-17, read day 18
[6] = Tabelle 2 (Beispiel 2), Colestyramin 1000, Verbindung 1 25, combination 25 + 1000 mg/kg (Colestyramin 4 h later)
[7] = Tabelle 3 (Beispiel 3), Colestyramin 1000, Verbindung 1 25, combination 25 + 1000 mg/kg (Colestyramin 4 h later)

SMILES: CC(O)=C(C#N)C(=O)Nc1ccc(C(F)(F)F)cc1 [Verbindung 1, N-(4-Trifluormethylphenyl)-2-cyan-3-hydroxy-crotonsäureamid]
- Wirkungsdauer und Blutspiegel der Verbindung 1 [1]: drastisch reduziert
- Arthritis Index (%) [2, 3]: -100%
- Pfotenvolumen (%) [2, 3]: -92%
- Arthritis Index (%) [2, 4]: -77%
- Pfotenvolumen (%) [2, 4]: -63%
- Arthritis Index (%) [2, 5]: -92%
- Pfotenvolumen (%) [2, 5]: -83%
- Arthritis Index (%) [2, 6]: -100%
- Pfotenvolumen (%) [2, 6]: -92%
- Arthritis Index (%) [2, 7]: -100%
- Pfotenvolumen (%) [2, 7]: -110%
- Wirksamkeit im pathologischen Tiermodell (Adjuvans Arthritis) ([2]; about 2,5 mg/kg/Tag Verbindung 1, effect of added Colestyramin, result in words): nicht vermindert
